In ChEMBL document CHEMBL1268853, “Characterization of Acetylcholinesterase Inhibitory Constituents from Annona glabra Assisted by HPLC Microfractionation” (J Nat Prod, 2010):
Structures can show the parent of a compound that is named as a salt.

molecular target: Acetylcholinesterase (Electrophorus electricus, UniProt O42275); experiment: Inhibition of electric eel AChE by Ellman's method
Sequence (O42275 whole entry): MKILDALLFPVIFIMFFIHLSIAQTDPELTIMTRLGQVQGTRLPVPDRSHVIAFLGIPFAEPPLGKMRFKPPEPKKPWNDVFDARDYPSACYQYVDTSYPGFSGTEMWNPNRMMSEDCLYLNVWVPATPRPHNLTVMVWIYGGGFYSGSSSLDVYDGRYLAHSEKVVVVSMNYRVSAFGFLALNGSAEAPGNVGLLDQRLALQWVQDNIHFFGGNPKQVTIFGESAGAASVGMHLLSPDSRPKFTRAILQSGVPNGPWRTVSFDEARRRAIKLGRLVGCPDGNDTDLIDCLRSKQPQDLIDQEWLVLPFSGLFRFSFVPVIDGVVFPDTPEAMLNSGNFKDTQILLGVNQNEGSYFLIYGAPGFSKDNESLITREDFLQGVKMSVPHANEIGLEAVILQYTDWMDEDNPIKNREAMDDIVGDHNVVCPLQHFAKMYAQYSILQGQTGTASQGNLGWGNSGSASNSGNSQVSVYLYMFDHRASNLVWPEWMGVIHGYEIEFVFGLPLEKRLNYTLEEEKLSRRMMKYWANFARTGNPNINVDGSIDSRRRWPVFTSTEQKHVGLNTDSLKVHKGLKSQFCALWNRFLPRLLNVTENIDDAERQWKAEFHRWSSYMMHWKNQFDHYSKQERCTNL

Q: `COc1ccc(C[C@H]2c3cc(O)c(OC)cc3CCN2C)cc1O` was tested. Which IC50 did it give?
A: 72.2 µM

Q: `COc1cc2ccnc3c2c(c1OC)-c1cc2c(cc1C3=O)OCO2` was tested. Which IC50 did it give?
A: > 150 µM

Q: With `COc1cc2c(cc1OC)-c1cc3cc(OC)c(OC)cc3c[n+]1CC2` [PSEUDOPALMATINE TRIFLUOROACETATE] as the compound, how does the IC50 read?
A: 1.8 µM

Q: Which IC50 does the source give for `COc1cc2c(cc1OC)-c1cc3ccc(O)c(OC)c3c[n+]1CC2` [DEHYDROCORYDALMINE TRIFLUOROACETATE] here?
A: 96.5 µM

Q: How did the IC50 turn out when `COc1cc2c(cc1O)C=[N+]1CCc3cc(OC)c(OC)cc3[C@@H]1C2` was run?
A: 154 µM

Q: `COc1cc2c(cc1O)-c1cc3cc(OC)c(OC)cc3c[n+]1CC2` [PSEUDOCOLUMBAMINE TRIFLUOROACETATE] was tested. Which IC50 did it give?
A: 5 µM

Q: `COc1cc2c(cc1O)C[C@H]1NCCc3cc4c(c-2c31)OCO4` was tested. Which IC50 did it give?
A: > 117 µM

Q: How did the IC50 turn out when `COc1c(O)cc2c3c1-c1ccccc1C[C@H]3NCC2` was run?
A: 123 µM

Q: For `COc1cc2c(cc1O)C=[N+](C)CC2`, which IC50 is on record?
A: 16 µM

Q: For `COc1cc2c[n+]3c(cc2cc1O)-c1cc(OC)c(OC)cc1CC3` [DEHYDROCORYTENCHINE TRIFLUOROACETATE], which IC50 is on record?
A: 97.6 µM

Q: With `COc1cc2ccnc3c2c(c1OC)-c1ccccc1C3=O` [LYSICAMINE] as the compound, how does the IC50 read?
A: 16.1 µM

Q: Which IC50 does the source give for `COc1c(O)c2c3c(c1OC)-c1cc4c(cc1C[C@@H]3NCC2)OCO4` here?
A: 76.9 µM

Q: For `COc1cccc2c1C(=O)c1c(C)cc(=O)[nH]c1C2=O`, which IC50 is on record?
A: 23.4 µM

Q: With `O=C1c2ccccc2-c2c3c(cc4ccnc1c24)OCO3` [LIRIODENINE] as the compound, how does the IC50 read?
A: > 150 µM

Q: With `COc1cc2c(cc1OC)[C@@H]1Cc3ccc(O)c(OC)c3C=[N+]1CC2` as the compound, how does the IC50 read?
A: 30.8 µM

Q: For `COc1cc2c3c(c1O)-c1c(ccc(OC)c1OC)C[C@@H]3[N+](C)(C)CC2`, which IC50 is on record?
A: > 140 µM

Q: With `COc1cc2c(cc1O)C[N@+]1(C)CCc3cc(OC)c(OC)cc3[C@@H]1C2` as the compound, how does the IC50 read?
A: 8.4 µM

Q: For `O[C@@H]1c2ccccc2-c2c3c(cc4c2[C@H]1NCC4)OCO3`, which IC50 is on record?
A: > 126 µM

Q: Which IC50 does the source give for `COc1c(O)c2c3c(c1OC)-c1ccccc1C[C@H]3NCC2` here?
A: 110 µM
